Measurements: patent publication US8080522B2, “Polyethlene glycol modifications of thymosin alpha-1” (Institute of Pharmacology and Toxicology Academy of …, priority 2005, dated 2011)

Experiments:
spleen cell = assay: Interferon-γ production of spleen cells stimulated by Con A (double antibody sandwich ELISA); type: cell-based; settings: Table 1-1; for Concentration of IFN-γ: Con A 0.5 μg/mL, 24 hours, n = 3; for Enhancement percentage: versus Con A alone
Procedure: Prepare spleen cell suspension in sterile condition. Adjust cell concentration to 5×10^6 cell/mL by adding RPMI-1640 culture with 20% bovine serum. Add 0.5 mL cell suspension, 0.25 mL Con A (final concentration is 0.5 μg/mL) and 0.25 mL samples with different concentrations in 24-well plate; and add RPMI-1640 culture in control wells. Incubate the plates in a 5% CO2 chamber at 37° C. for 24 hours. Centrifuge and collect supernatant, test the content of IFN-γ in supernatant by double antibody sandwich ELISA. The protocol is according to the instruction on ELISA kit.

[1] = Half-life in liver homogenate (HPLC); type: in vitro ADME; settings: 37° C., sample 0.4 mg/mL or 0.8 mg/mL, read-out: t1/2 in liver homogenate (converted)
Procedure: Experimental method: Prepare 0.4 mg/mL or 0.8 mg/mL sample aqueous solution in centrifuge tube, adding 50 μL liver homogenate. Then incubate for different time in 37° C. water bath. Terminate the reaction and precipitate liver homogenate protein by heating the mixture in boiling water for 5 minutes. Centrifuge it (10000 rpm) for 10 minutes. Analyze the supernatant by HPLC. The data was statistically analyzed by Origin Prof. 5.0.
HPLC: Column temperature: 25° C.; Flow rate 1.0 mL/min; Detection wavelength: 200 nm; Mobile phase A: 0.1% TFA/H2O; Mobile phase B: 0.1% TFA/70% CH3CN.

[2] = Plasma concentration / pharmacokinetics in mouse (competitive ELISA); type: in vivo; settings: 300 μg per mouse, injected peritoneally, parameters in 24 h
Procedure: Coating antigen: Dilute Tα1 detection antigen stock solution to a final concentration of 2 μg/mL with coating solution, and add it into the wells of ELISA plate for 0.1 mL per well, and incubate at 4° C. for 5 days. Then wash the ELISA plate 3 times with washing buffer, each 0.2 mL/well and 3 min/time. Add 0.2 mL blocking buffer to each well, incubate for 1.5 hours at 37° C., wash plate 2 times by washing buffer, and spin dried.
Sample preparation: Weight sample accurately, dissolve it in saline to a concentration of 1.5 mg/mL. Administrate 0.2 Ml by injection to each mouse peritoneally. Collect blood sample in 3 min, 20 min, 40 min, 1 h, 2 h, 3 h, 6 h, 8 h, 12 h, and 24 h. Collect serum by centrifuge the blood samples for 5 minutes at 10000 rpm, stored at −20° C. in a freezer. o prepare test sample, […] was added by 0.1 mL 1:1500 rabbit anti-Tα1 serum (final concentration is 1:6000), and 0.2 mL CD-1® mouse serum, and […]. Prepare blank control at the same time. Total volume is 0.4 mL. Incubate for 2 hours at 37° C. To prepare standard sample, Tα1 0.1 mL with different concentrations from 0.0004 to 400 μg/mL was added by 0.1 mL 1:1500 rabbit anti-Tα1 serum (final concentration is 1:6000), and 0.2 mL CD-1® mouse serum. Prepare blank control at the same time. Total volume is 0.4 mL. Incubate for 2 hours at 37° C.
Sample Testing Add the prepared test sample and standard sample to ELISA plate, 0.1 mL/well, reacting for 1 hour in 37° C. chamber. Wash the plates 3 times, spin dryed. Add substrate 0.1 mL/well for 10 minutes. Add 2 mol/L H2SO4 0.05 mL to each well to terminate the reaction. Measure the OD value at 450 nm. Plot the standard curve with the concentration of Tα1 standard sample as abscissa and OD value as vertical coordinate. Calculate the content of test sample according to this standard curve.

[3] = tested on: T lymphocyte (spleen cell); assay: T lymphocyte proliferation stimulated by Con A (3H-TdR incorporation); type: cell-based, mouse; settings: Table 2-1; for 3H-TdR incorporation (cpm, x ± SD): Con A 0.5 μg/mL, 72 hours, n = 4; for Enhancement percentage: versus Con A alone
Procedure: Sacrifice mouse by draining artery blood, remove spleen in sterile condition, and make it to spleen cell suspension. After red blood cell lysis, wash for 3 times, and stain with Trypan Blue to count the living cells. The amount of living cells should be more than 95%. Dilute the cell concentration to 5×10^6 cell/mL by adding RPMI-1640 culture with 10% bovine serum. Add spleen cell suspension to a sterilized 96-well plate for 100 μL per well. The total amount is 200 μL per well (including 50 μL Con A and 50 μL medicament). Each sample concentration is repeated fro 3-4 wells. Incubate the plate in a 5% CO2 chamber for 72 hours, add 10 μci/mL ^3H-TdR 20 μL per well 16 hours before termination of the incubation, giving rise to a final concentration of 1.0 μci (37.0 KBq)/mL. Collect cells on filter membrane by using Herveste 96 cell harvester, dried in 80° C. oven for 20 minutes or dried in air. Put the dried filter membrane into 1450-423 microBeta sample bag, add scintillation liquid, and measure radioactivity (cpm) in Perkin Elmer MicroBeta Trilux 1450 Scintillation Counter.

half-life [1]: 24 min
AUC ([2]; n = 3): 2120 ng·h/mL
Cmax ([2]; serum, ip, 300 ug/animal, n = 3, read-out: Cmax): 443 ng/mL
Tmax ([2]; serum, ip, 300 ug/animal, n = 3, read-out: Tmax): 60 min
Substance: Ac-SDAAVDTSSEITTKDLKEKKEVVEEAENC-NH2 [BMJBT009]
Concentration of IFN-γ (spleen cell; sample 1 μg/mL): 1895.7 ± 49.8 pg/mL
Enhancement percentage (spleen cell; sample 1 μg/mL): +152.2%
Concentration of IFN-γ (spleen cell; sample 10 μg/mL): 1814.5 ± 105.5 pg/mL
Enhancement percentage (spleen cell; sample 10 μg/mL): +141.4%
Concentration of IFN-γ (spleen cell; sample 100 μg/mL): 672.1 ± 94.3 pg/mL
Enhancement percentage (spleen cell; sample 100 μg/mL): −11.0%
3H-TdR incorporation (cpm, x ± SD) ([3]; sample 10 μg/mL): 24888 ± 2473 cpm
Enhancement percentage ([3]; sample 10 μg/mL): +84.5%
3H-TdR incorporation (cpm, x ± SD) ([3]; sample 50 μg/mL): 24164 ± 2683 cpm
Enhancement percentage ([3]; sample 50 μg/mL): +46.6%
3H-TdR incorporation (cpm, x ± SD) ([3]; sample 100 μg/mL): 20574 ± 2746 cpm
Enhancement percentage ([3]; sample 100 μg/mL): +56.6%
